Data reported in patent publication US8598357B2, “Benzodioxole piperidine compounds” (Hoffmann-La Roche Inc., priority 2011, dated 2013).
pKi: −log10 of the molar value. Like-named read-outs stand apart in the source and are kept apart here.

Assays:
D2 receptor = D2 receptor (Homo sapiens (Human), UniProt P14416); test: Radioligand binding assay ([3H]-spiperone) on membranes of HEK293 EBNA cells expressing human D2 receptor; conditions: human receptor in HEK293 EBNA cells; 0.7 nM [3H]-spiperone
Protocol: (§1) HEK293 EBNA cells were transiently transfected with expression plasmids encoding for the human D2 or D3 or for the human 5-HT2A receptor, respectively. The cells were harvested 48 h post-transfection, washed three times with cold PBS and stored at −80° C. prior to use. The pellet was suspended in cold 50 mM Tris-HCl buffer containing 10 mM EDTA (pH 7.4) and was homogenized with a Polytron (Kinematica AG, Basel, Switzerland) for 20-30 sec at 12.000 rpm. After centrifugation at 48.000×g for 30 min at 4° C., the pellet was resuspended in cold 10 mM Tris-HCl buffer containing 0.1 mM EDTA (pH 7.4), homogenized, and centrifuged as above. This pellet was further resuspended in a smaller volume of ice cold 10 mM Tris-HCl buffer containing 0.1 mM EDTA (pH 7.4) and homogenized with a Polytron for 20-30 sec at 12.000 rpm. The protein content of this homogenate was determined with the Bio-Rad (Bradford) Protein Assay (Biorad Laboratories GmbH, München, Germany) according to the instructions of the manufacturer using gamma globulin as the standard. This homogenate was stored at −80° C. in aliquots and thawed immediately prior to use.
(§2) Aliquots of membrane preparations were thawed at RT, resuspended in assay buffer (D2, D3: 50 mM Tris-HCl, 120 mM NaCl, 5 mM MgCl2, 1 mM EDTA, 5 mM KCl, 1.5 mM CaCl2, pH=7.4; 5-HT2A: 50 mM Tris-HCl, 10 mM MgCl2, 1 mM EGTA, pH=7.4), homogenized with a Polytron for 20-30 sec at 12.000 rpm and adjusted to a final concentration of approximately 7.5 μg protein/well (D2, D3) and 15 μg protein/well (5-HT2A), respectively.
(§3) The nonspecific binding was determined with equally composed reaction mixtures in the presence of 10 μM unlabelled spiperone. Per well 45 μl of Microscint 40 (Perkin Elmer, Schwerzenbach, Switzerland) was added, plates for sealed, shaken for 20 min and counted for 3 min on a Topcount Microplate Scintillation Counter (Can berra Packard SA, Ziirich, Switzerland) with quenching correction.
(§4) The CPM value for each duplicate of a concentration of competing compound was averaged (y1), then the % specific binding was calculated according to the equation (((y1−non-specific)/(total binding−non-specific))×100). Graphs were plotted with the % specific binding using XLfit, a curve fitting program that iteratively plots the data using Levenberg-Marquardt algorithm. The single site competition analysis equation used was y=A+((B−A)/(1+((x/C)D))), where y is the % specific binding, A is the minimum y, B is the maximum y, C is the IC50, x is the log 10 of the concentration of the competing compound and D is the slope of the curve (the Hill Coefficient). […] The affinity constant (K) was calculated using the Cheng-Prusoff equation Ki=(IC50/1+([L]/Kd), where [L] is the concentration of radioligand and Kd is the dissociation constant of the radioligand at the receptor as determined by the saturation isotherm.

5-HT2A receptor = 5-HT2A receptor (Homo sapiens (Human), UniProt P28223); test: Radioligand binding assay ([3H]-ketanserin) on membranes of HEK293 EBNA cells expressing human 5-HT2A receptor; conditions: read-out: 5HT2A Ki
D3 receptor = D3 receptor (Homo sapiens (Human), UniProt P35462); test: Radioligand binding assay ([3H]-spiperone) on membranes of HEK293 EBNA cells expressing human D3 receptor; conditions: read-out: D3 Ki; human receptor in HEK293 EBNA cells; 0.5 nM [3H]-spiperone
Protocol: as §1, §2, §3, §4

[1] = human receptor in HEK293 EBNA cells, 1.1 nM [3H]-ketanserin

Chain of D3 receptor (P35462 whole entry): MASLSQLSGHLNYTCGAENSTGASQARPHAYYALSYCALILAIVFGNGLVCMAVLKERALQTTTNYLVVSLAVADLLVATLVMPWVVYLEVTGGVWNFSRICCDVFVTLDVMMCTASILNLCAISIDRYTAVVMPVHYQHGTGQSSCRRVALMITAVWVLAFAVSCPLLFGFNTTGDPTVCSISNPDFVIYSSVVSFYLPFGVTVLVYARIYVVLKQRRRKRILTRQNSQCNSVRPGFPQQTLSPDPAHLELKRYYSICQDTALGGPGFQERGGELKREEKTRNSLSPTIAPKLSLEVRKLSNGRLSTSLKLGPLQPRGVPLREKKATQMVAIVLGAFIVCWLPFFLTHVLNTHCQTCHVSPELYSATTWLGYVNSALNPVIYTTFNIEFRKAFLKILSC
Chain of D2 receptor (P14416 whole entry): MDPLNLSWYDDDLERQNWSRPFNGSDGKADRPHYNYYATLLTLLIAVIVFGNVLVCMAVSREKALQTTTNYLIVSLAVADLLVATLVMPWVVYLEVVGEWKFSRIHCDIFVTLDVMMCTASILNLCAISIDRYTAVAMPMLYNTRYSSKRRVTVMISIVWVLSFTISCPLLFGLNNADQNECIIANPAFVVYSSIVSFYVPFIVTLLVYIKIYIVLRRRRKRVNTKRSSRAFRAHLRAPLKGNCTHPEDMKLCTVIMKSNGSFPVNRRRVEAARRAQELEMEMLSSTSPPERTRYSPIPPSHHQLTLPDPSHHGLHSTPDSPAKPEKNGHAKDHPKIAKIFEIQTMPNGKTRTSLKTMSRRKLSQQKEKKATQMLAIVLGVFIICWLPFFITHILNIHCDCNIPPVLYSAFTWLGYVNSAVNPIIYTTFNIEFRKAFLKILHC

SMILES	pKi (D2 receptor)	pKi (5-HT2A receptor)	pKi (D3 receptor)	pKi (5-HT2A receptor; [1])
O=C(C[C@@H]1CCCCO1)N[C@H]1CC[C@H](CCN2CCC(c3cccc4c3OCO4)CC2)CC1 [Example 40, Trans-N-{4-[2-(4-Benzo[1,3]dioxol-4-yl-piperidin-1-yl)-ethyl]-cyclohexyl}-2-(S)-tetrahydro-pyran-2-yl-acetamide]	6.37	7.55	8.05	–
O=C(CF)N[C@H]1CC[C@H](CCN2CCC(c3cccc4c3OCO4)CC2)CC1 [Example 76, Trans-N-{4-[2-(4-Benzo[1,3]dioxol-4-yl-piperidin-1-yl)-ethyl]-cyclohexyl}-2-fluoro-acetamide]	6.64	–	7.91	7.40
CC(=O)N[C@H]1CC[C@H](CCN2CCC(c3cccc4c3OCO4)CC2)CC1 [Example 1, Trans-N-{4-[2-(4-Benzo[1,3]dioxol-4-yl-piperidin-1-yl)-ethyl]-cyclohexyl}-acetamide]	6.60	–	8.30	7.62
COC(C)CC(=O)N[C@H]1CC[C@H](CCN2CCC(c3cccc4c3OCO4)CC2)CC1 (stereo partly drawn) [Example 27, Trans-N-{4-[2-(4-Benzo[1,3]dioxol-4-yl-piperidin-1-yl)-ethyl]-cyclohexyl}-3-methoxy-butyramide]	6.40	7.47	8.12	–
O=C(N[C@H]1CC[C@H](CCN2CCC(c3cccc4c3OCO4)CC2)CC1)c1ccccc1 [Example 9, Trans-N-{4-[2-(4-Benzo[1,3]dioxol-4-yl-piperidin-1-yl)-ethyl]-cyclohexyl}-benzamide]	6.92	8.29	8.44	–
CC(C)(O)C(=O)N[C@H]1CC[C@H](CCN2CCC(c3cccc4c3OCO4)CC2)CC1 [Example 32, Trans-N-{4-[2-(4-Benzo[1,3]dioxol-4-yl-piperidin-1-yl)-ethyl]-cyclohexyl}-2-hydroxy-2-methyl-propionamide]	6.39	8.32	7.60	–
O=C(N[C@H]1CC[C@H](CCN2CCC(c3cccc4c3OCO4)CC2)CC1)C1COc2ccccc2C1 (stereo partly drawn) [Example 60, Chroman-3-carboxylic acid-trans-N-{4-[2-(4-benzo[1,3]dioxol-4-yl-piperidin-1-yl)-ethyl]-cyclohexyl}-amide]	5.98	–	8.17	7.66
O=C(CC1(O)CCCCC1)N[C@H]1CC[C@H](CCN2CCC(c3cccc4c3OCO4)CC2)CC1 [Example 21, Trans-N-{4-[2-(4-Benzo[1,3]dioxol-4-yl-piperidin-1-yl)-ethyl]-cyclohexyl}-2-(1-hydroxy-cyclohexyl)-acetamide]	6.44	7.80	7.98	–
CN1CCC(C(=O)N[C@H]2CC[C@H](CCN3CCC(c4cccc5c4OCO5)CC3)CC2)CC1 [Example 61, 1-Methyl-piperidine-4-carboxylic acid-trans-N-{4-[2-(4-benzo[1,3]dioxol-4-yl-piperidin-1-yl)-ethyl]-cyclohexyl}-amide]	6.83	–	7.45	8.23
O=C(CC1(O)CCC1)N[C@H]1CC[C@H](CCN2CCC(c3cccc4c3OCO4)CC2)CC1 [Example 45, Trans-N-{4-[2-(4-Benzo[1,3]dioxol-4-yl-piperidin-1-yl)-ethyl]-cyclohexyl}-2-(1-hydroxy-cyclobutyl)-acetamide]	6.58	7.57	8.19	–
O=C(N[C@H]1CC[C@H](CCN2CCC(c3cccc4c3OCO4)CC2)CC1)C(F)(F)F [Example 73, Trans-N-{4-[2-(4-Benzo[1,3]dioxol-4-yl-piperidin-1-yl)-ethyl]-cyclohexyl}-2,2,2-trifluoro-acetamide]	6.46	–	7.67	7.43
CO[C@H]1CC[C@H](CC(=O)N[C@H]2CC[C@H](CCN3CCC(c4cccc5c4OCO5)CC3)CC2)CC1 [Example 63, Trans-N-{4-[2-(4-Benzo[1,3]dioxol-4-yl-piperidin-1-yl)-ethyl]-cyclohexyl}-2-(4-methoxy-cyclohexyl)-acetamide]	6.44	–	8.09	7.46
